Entries after “also recorded” stand apart in the source; their conditions may differ.
What was measured:
[1] = test system: Lice (L) and Plutella (P) eggs; conditions: Lice (L) and Plutella (P)
Plutella xylostella eggs [2] = experiment: whole plant or invertebrate; assay type: in vivo; conditions: for Ovicidal activity % / Activity class 0 = inactive 1 = low 2 = med 3 = high: Plutella (P); for % Inhibition: relative to controls
Procedure: The ovicidal efficacy of 2-acetyl-1-tetralone was also tested against Plutella eggs.

B. ovis eggs = experiment: Egg hatching in Bovicola ovis; assay type: in vivo; conditions: 10 mM; for Number hatched in different replicates: 10 eggs per replicate; for % Inhibition: in comparison to the controls; for Number unhatched: per replicate
Procedure: B. ovis eggs were collected from the wool of sheep that were infested with this parasite. The eggs were collected using forceps and with the aid of a dissecting microscope and placed in 24 well tissue culture plates in duplicate lots of 10 eggs per replicate. The eggs were then exposed to either methanol alone (control) or the test compounds for either 10 minutes or 1 minute before being removed from the wells and placed into individual glass vials containing a diet at the base of the tube. The tubes were placed in plastic containers containing a salt solution (to keep humidity constant at 68%) and the containers maintained at a temperature 32° C. The eggs were monitored for hatching over the following 12 days and % hatch inhibition determined in comparison to the controls.

[3] = test system: Helicoverpa armigera eggs; experiment: Egg hatching of Helicoverpa armigera; conditions: 10 mM
lice eggs = experiment: whole plant or invertebrate; assay type: in vivo; conditions: Lice (L)
Plutella xylostella eggs [4] = experiment: Reversal of inhibition of Plutella egg hatching by added FeSO4; assay type: in vivo
Procedure: (§1) Within 24 hours of collection the following experimental design was chosen. Batches of eggs were exposed to 10 mM 6,6′-dimethyl-2,2′-dipyridyl for 2 seconds while additional batches of eggs were exposed to the solvent only (Methanol) for 2 seconds. All batches of eggs were allowed to air dry for 20 minutes at room temperature. The eggs were then given a 2 second exposure to FeSO4 at either 10, 5 or 1 mM, air dried and put in the incubator at 24° C. and allowed to hatch over the next 6 days. In addition, a positive control of 10 mM 6,6′-dimethyl-2,2′-dipyridyl was set up in which eggs were exposed to this compound for 2 seconds, air dried and placed in the incubator.
as §1, with “10 mM 5,5′-dimethyl-2,2′-dipyridyl for 2” for “10 mM 6,6′-dimethyl-2,2′-dipyridyl for 2”, “FeSO4 at 10, 5” for “FeSO4 at either 10, 5”, “put in an incubator at” for “put in the incubator at”, “of 10 mM, 5,5′-dimethyl-2,2′-dipyridyl was set” for “of 10 mM 6,6′-dimethyl-2,2′-dipyridyl was set”

[5] = Table 10, eggs laid on cloth, 1 mM
[6] = Table 10, eggs laid on cloth, 10 mM
[7] = Table 11, eggs laid on parafilm, 1 mM
[8] = Table 11, eggs laid on parafilm, 10 mM
[9] = 10 mM chelator followed by 2 second exposure to 1 mM FeSO4
[10] = 10 mM chelator followed by 2 second exposure to 5 mM FeSO4
[11] = 10 mM chelator followed by 2 second exposure to 10 mM FeSO4
[12] = 10 mM chelator followed by 2 second exposure to MEOH
[13] = 10 mM chelator, 2 s, (+ve) control without second exposure

## Cc1ccc(-c2ccc(C)cn2)nc1 [5,5′-dimethyl-2,2′-dipyridyl]
[1]; 10 mM
  Ovicidal activity %: 100.00%
[1]; listed as of 10 mM
  Activity class 0 = inactive 1 = low 2 = med 3 = high: 3 (a pLD50 greater than 4 is considered strongly active (Class 3))
Plutella xylostella eggs [2]; 10 and 1 mM
  effect on egg hatching of Plutella xylostella (words): significantly inhibit egg hatching
Plutella xylostella eggs [2]; 0.1 mM
  Ovicidal activity %: 57.00%
Plutella xylostella eggs [2]; 1 mM
  Ovicidal activity %: 98.00%
Plutella xylostella eggs [2]; listed as of 0.1 mM
  Activity class 0 = inactive 1 = low 2 = med 3 = high: 3 (a pLD50 greater than 4 is considered strongly active (Class 3))
Plutella xylostella eggs [2]; listed as of 1 mM
  Activity class 0 = inactive 1 = low 2 = med 3 = high: 3 (a pLD50 greater than 4 is considered strongly active (Class 3))
Plutella xylostella eggs [2]; [5]
  Number hatched: 5
  Number unhatched: 22
  % Inhibition: 78%
Plutella xylostella eggs [2]; [6]
  Number hatched: 0
  Number unhatched: 21
  % Inhibition: 100%
Plutella xylostella eggs [2]; [7]
  Number hatched: 18
  Number unhatched: 133
  % Inhibition: 88%
Plutella xylostella eggs [2]; [8]
  Number hatched: 0
  Number unhatched: 138
  % Inhibition: 100%
B. ovis eggs; 10 or 1 minute exposure
  egg hatching in the louse: completely inhibited
B. ovis eggs; 1 minute exposure
  Number hatched in different replicates: Rep 1. 0; also recorded: Rep 2. 0
  % Inhibition: 100%
  Number unhatched: 10
B. ovis eggs; 10 minute exposure
  Number hatched in different replicates: Rep 2. 0; also recorded: Rep 1. 0
  % Inhibition: 100%
  Number unhatched: 10
[3]
  effect on egg hatching of Helicoverpa armigera (words): significant inhibition of egg hatching
[3]; Table 13
  Number hatched: 0
  Number unhatched: 42
[3]; Table 13, relative to the control (100% MeOH)
  % Inhibition: 100%
Lice eggs; 30 mM
  Ovicidal activity %: 100.00%
Lice eggs; listed as of 30 mM
  Activity class 0 = inactive 1 = low 2 = med 3 = high: 2 (a pLD50 value between 3 and 4 is considered moderately active (Class 2))
Plutella xylostella eggs [4]; [9]
  Number hatched: 39
  Number unhatched: 0
Plutella xylostella eggs [4]; 10 mM chelator followed by 2 second exposure to 1 mM FeSO4, relative to FeSO4 controls
  % Inhibition: 0%
Plutella xylostella eggs [4]; [10]
  Number hatched: 25
  Number unhatched: 0
Plutella xylostella eggs [4]; 10 mM chelator followed by 2 second exposure to 5 mM FeSO4, relative to FeSO4 controls
  % Inhibition: 0%
Plutella xylostella eggs [4]; [11]
  Number hatched: 23
  Number unhatched: 2
Plutella xylostella eggs [4]; 10 mM chelator followed by 2 second exposure to 10 mM FeSO4, relative to FeSO4 controls
  % Inhibition: 8%
Plutella xylostella eggs [4]; [12]
  % Inhibition: 55%
  Number hatched: 16
  Number unhatched: 19
Plutella xylostella eggs [4]; [13]
  % Inhibition: 100%
  Number hatched: 0
  Number unhatched: 38
Plutella xylostella eggs [4]; 10 mM chelator, then FeSO4 10, 5 or 1 mM
  effect of added Fe in FeSO4 on the chelator's inhibition of egg hatching: able to reverse the effects
Plutella xylostella eggs [4]; 10 mM chelator, then MeOH
  inhibition of egg hatching after MeOH alone post exposure: significant degree of inhibition of egg hatching

Reference: patent US20070254907A1, “COMPOSITIONS AND METHODS FOR CONTROLLING INFESTATION” (HATCHTECH PTY LTD, priority 2003, published 2007)
